In US20110269805A1, “METHOD OF TREATING SENSORIMOTOR DISORDERS WITH 4-(1-(2,3-DIMETHYLPHENYL)ETHYL)-1H-IMIDAZOLE-2(3H)-THIONE” (priority 2007, published 2011):
Entries after “also recorded” stand apart in the source; their conditions may differ.

What was measured:
Format in all cases: in vivo
C57B/6 male mice [1] = experiment: Amphetamine-induced stereotypy (open field locomotion); details: for AMBULATIONS / FINE MOVEMENTS: 30 μg/kg PO, amphetamine 8 mg/kg; for FINE MOVEMENTS: scored 60 min post-amphetamine
Procedure: C57B/6 male mice were placed in an open field apparatus and allowed to habituate for 15-30 minutes. The compound of the invention (at 30 μg/kg) was administered PO at 0, +15, or +30 minutes relative to amphetamine (8 mg/kg) administration, and locomotor behavior was scored for an additional 60 minutes post-amphetamine. Amphetamine was administered IP. Locomotion was separated into “fine movements” (indicative of stereotypy) and “ambulations” (indicative of hyperactivity). Amphetamine induced stereotypy. […] Locomotion was separated into “fine movements” (indicative of stereotypy) and “ambulations” (indicative of hyperactivity). Prepulse inhibition. Sprague Dawley male rats (˜200 g-300 g) were used (n=8/group). […] Each rat was individually placed in the startle chamber 10 minutes post-phencyclidine or post-amphetamine or post-vehicle. Testing was carried out using the SR-Lab Startle Response system by San Diego Instruments. Each rat was allowed to acclimate for a 5 minute period with a 65-dB background noise continuously present throughout the session. […] A sensor in the chamber recorded the startle responses following all stimuli presented.

C57B/6 male mice [2] = experiment: as above; details: 30 μg/kg PO, time post-amphetamine −15 min, amphetamine 8 mg/kg
Male Sprague-Dawley rats = experiment: Pre-pulse inhibition of the startle response (PPI) disrupted by psychostimulants
Procedure: Male Sprague-Dawley rats were treated with Drug 1 (IP) followed 20 minutes later by Drug 2 (IP or SC as indicated in the methods). Ten minutes following administration of Drug 2 (except in the case of apomorphine where animals were immediately tested post-apomorphine), rats were placed in the startle chamber and allowed 5 minutes to acclimate with 65-dB background white noise. The acclimation period was followed by a ˜15 minute test session during which time rats were presented with 40 ms 120 dB startle pulses alone or preceded 100 ms by a pre-pulse 3, 6, or 12 dB above background. These four types of active stimuli were presented in pseudorandom order along with no-stimulation trials to assess baseline activity throughout testing. An average of 20 s separated each trial type. The maximum startle magnitude was measured for every trial type. PPI for each animal was calculated as the percentage startle magnitude to the pre-pulse+pulse or no-stimulation trials relative to the pulse-alone startle magnitude. Amphetamine induced stereotypy. […] Locomotion was separated into “fine movements” (indicative of stereotypy) and “ambulations” (indicative of hyperactivity). Prepulse inhibition. […] Each rat was individually placed in the startle chamber 10 minutes post-phencyclidine or post-amphetamine or post-vehicle. Testing was carried out using the SR-Lab Startle Response system by San Diego Instruments. Each rat was allowed to acclimate for a 5 minute period with a 65-dB background noise continuously present throughout the session. […] A sensor in the chamber recorded the startle responses following all stimuli presented.

SMILES: Cc1cccc(C(C)c2c[nH]c(=S)[nH]2)c1C (stereo not shown) [AGN-203818, 4-(1-(2,3-dimethylphenyl)ethyl)-1H-imidazole-2(3H)-thione]
- AMBULATIONS (C57B/6 male mice [1]; time post-amphetamine 0 min): 7337 ± 890.0
- FINE MOVEMENTS (C57B/6 male mice [1]; time post-amphetamine 0 min): 762.2 ± 89.4^⋄
- AMBULATIONS (C57B/6 male mice [1]; time post-amphetamine 15 min): 5747.3 ± 874.4
- FINE MOVEMENTS (C57B/6 male mice [1]; time post-amphetamine 15 min): 1066.5 ± 37.8^⋄
- AMBULATIONS (C57B/6 male mice [1]; time post-amphetamine 30 min): 7201.2 ± 1669.4
- FINE MOVEMENTS (C57B/6 male mice [1]; time post-amphetamine 30 min): 1297.8 ± 85.3^⋄
- oral activity (in words) (C57B/6 male mice [1]; administered PO): orally active
- effect on amphetamine-induced stereotypy (in words) (C57B/6 male mice [1]; high-dose psychostimulant administration, listed as compound of the invention): effectively inhibit stereotypy; also recorded: selectively decreased amphetamine-induced stereotypy
- AMBULATIONS (C57B/6 male mice [2]; ambulations indicative of hyperactivity): 4756.3 ± 1208.8
- FINE MOVEMENTS (C57B/6 male mice [2]; scored 60 min post-amphetamine, fine movements indicative of stereotypy): 904.5 ± 107.0^⋄
- % PPI PP3 (Male Sprague-Dawley rats; Compound 0.01 mg/kg as Drug 1, Drug 2 PCP (2 mg/kg, s.c.), pre-pulse 3 dB): 20.3 ± 10.6%
- % PPI PP6 (Male Sprague-Dawley rats; Compound 0.01 mg/kg as Drug 1, Drug 2 PCP (2 mg/kg, s.c.), pre-pulse 6 dB): 21.6 ± 10.7%
- % PPI PP12 (Male Sprague-Dawley rats; Compound 0.01 mg/kg as Drug 1, Drug 2 PCP (2 mg/kg, s.c.), pre-pulse 12 dB): 51.8 ± 5.6%
- % PPI PP3 (Male Sprague-Dawley rats; Compound 0.03 mg/kg as Drug 1, Drug 2 PCP (2 mg/kg, s.c.), pre-pulse 3 dB): 30.9 ± 7.4%
- % PPI PP6 (Male Sprague-Dawley rats; Compound 0.03 mg/kg as Drug 1, Drug 2 PCP (2 mg/kg, s.c.), pre-pulse 6 dB): 46.2 ± 4.2%^⋄
- % PPI PP12 (Male Sprague-Dawley rats; Compound 0.03 mg/kg as Drug 1, Drug 2 PCP (2 mg/kg, s.c.), pre-pulse 12 dB): 53.6 ± 4.2%
- % PPI PP3 (Male Sprague-Dawley rats; Compound 0.1 mg/kg as Drug 1, Drug 2 PCP (2 mg/kg, s.c.), pre-pulse 3 dB): 35.8 ± 7.0%
- % PPI PP6 (Male Sprague-Dawley rats; Compound 0.1 mg/kg as Drug 1, Drug 2 PCP (2 mg/kg, s.c.), pre-pulse 6 dB): 39.6 ± 10.7%
- % PPI PP12 (Male Sprague-Dawley rats; Compound 0.1 mg/kg as Drug 1, Drug 2 PCP (2 mg/kg, s.c.), pre-pulse 12 dB): 56.2 ± 5.6%^⋄
- % PPI PP3 (Male Sprague-Dawley rats; Compound 1 mg/kg as Drug 1, Drug 2 Amphetamine (4 mg/kg, s.c.), pre-pulse 3 dB): 49.6 ± 5.8%^⋄
- % PPI PP6 (Male Sprague-Dawley rats; Compound 1 mg/kg as Drug 1, Drug 2 Amphetamine (4 mg/kg, s.c.), pre-pulse 6 dB): 52.9 ± 4.3%^⋄
- % PPI PP12 (Male Sprague-Dawley rats; Compound 1 mg/kg as Drug 1, Drug 2 Amphetamine (4 mg/kg, s.c.), pre-pulse 12 dB): 65.7 ± 4.7%^⋄
- % PPI PP3 (Male Sprague-Dawley rats; Compound 1 mg/kg as Drug 1, Drug 2 PCP (2 mg/kg, s.c.), pre-pulse 3 dB): 48.8 ± 8.2%^⋄
- % PPI PP6 (Male Sprague-Dawley rats; Compound 1 mg/kg as Drug 1, Drug 2 PCP (2 mg/kg, s.c.), pre-pulse 6 dB): 45.0 ± 12.7%
- % PPI PP3 (Male Sprague-Dawley rats; Compound as Drug 1 (dose not given), Drug 2 Vehicle, pre-pulse 3 dB): 60.4 ± 4.8%^⋄
- % PPI PP6 (Male Sprague-Dawley rats; Compound as Drug 1 (dose not given), Drug 2 Vehicle, pre-pulse 6 dB): 59.8 ± 2.2%^⋄
- % PPI PP12 (Male Sprague-Dawley rats; Compound as Drug 1 (dose not given), Drug 2 Vehicle, pre-pulse 12 dB): 75.5 ± 2.9%^⋄*
- effect on PPI deficits induced by amphetamine or phencyclidine (in words) (Male Sprague-Dawley rats; deficits induced by amphetamine or phencyclidine): significantly rescue deficits in sensorimotor integration

SMILES: Clc1cccc(Cl)c1N=C1NCCN1 [Clonidine, reference compound]
- % PPI PP3 (Male Sprague-Dawley rats; Clonidine 30 ug/kg as Drug 1, Drug 2 Amphetamine (4 mg/kg, s.c.), pre-pulse 3 dB): 31.0 ± 6.9%
- % PPI PP6 (Male Sprague-Dawley rats; Clonidine 30 ug/kg as Drug 1, Drug 2 Amphetamine (4 mg/kg, s.c.), pre-pulse 6 dB): 40.7 ± 6.0%
- % PPI PP12 (Male Sprague-Dawley rats; Clonidine 30 ug/kg as Drug 1, Drug 2 Amphetamine (4 mg/kg, s.c.), pre-pulse 12 dB): 53.5 ± 5.2%
- % PPI PP3 (Male Sprague-Dawley rats; Clonidine 30 ug/kg as Drug 1, Drug 2 PCP (2 mg/kg, s.c.), pre-pulse 3 dB): 34.5 ± 8.2%
- % PPI PP6 (Male Sprague-Dawley rats; Clonidine 30 ug/kg as Drug 1, Drug 2 PCP (2 mg/kg, s.c.), pre-pulse 6 dB): 55.1 ± 9.8%
- % PPI PP12 (Male Sprague-Dawley rats; Clonidine 30 ug/kg as Drug 1, Drug 2 PCP (2 mg/kg, s.c.), pre-pulse 12 dB): 63.7 ± 7.4%
- % PPI PP3 (Male Sprague-Dawley rats; Clonidine 30 ug/kg as Drug 1, Drug 2 Vehicle, pre-pulse 3 dB above background): 35.2 ± 15.7%
- % PPI PP6 (Male Sprague-Dawley rats; Clonidine 30 ug/kg as Drug 1, Drug 2 Vehicle, pre-pulse 6 dB above background): 60.8 ± 3.0%^⋄
- % PPI PP12 (Male Sprague-Dawley rats; Clonidine 30 ug/kg as Drug 1, Drug 2 Vehicle, pre-pulse 12 dB above background): 54.7 ± 8.0%
